In patent US7488825B2 (Kabushiki Kaisha Yakult Honsha, priority 2003, dated 2009):
Counter-ions that a name gives are not always drawn.

How the values were obtained:
[1] = Solubility measurement in preparation solution (water solubility); assay type: physicochemical; details: hydrochloride; for water solubility: pH3.5; for dissolution amount: preparation solution (D-sorbitol, lactic acid, pH about 3.5), shaken at 22° C. for 30 minutes
Method: About 0.5 g of b- or c-type crystals were weighed out, suspended in a preparation solution, and shaken at 22° C. for 30 minutes (130 r/min). The mixture was filtered by a membrane filter (0.45 μm). To 1 ml of the filtrate, the preparation solution was added up to 200 mL. 10 μl was aliquoted and analyzed by liquid chromatography. The dissolution amount was obtained on the basis of a calibration curve previously prepared.
Note that the preparation solution used herein was prepared by dissolving 45 g of D-sorbitol in an appropriate amount of distilled water for injection, adding 900 mg of lactic acid, adjusting pH of the solution at about 3.5, and adding distilled water for injection up to 1000 mL.

[2] = Change of dissolution state over time (30 mg/mL in preparation solution); assay type: physicochemical; details: shaken for several minutes

water solubility [1]	dissolution amount [1]	temperature needed to dissolve [2]	SMILES
11.4 mg/mL	11.4 mg/mL	about 70 °C	CCc1c2c(nc3ccc(OC(=O)N4CCC(N5CCCCC5)CC4)cc13)-c1cc3c(c(=O)n1C2)COC(=O)[C@]3(O)CC [b-type crystals, irinotecan hydrochloride]
	≥ 100 mg/mL		CCc1c2c(nc3ccc(OC(=O)N4CCC(N5CCCCC5)CC4)cc13)-c1cc3c(c(=O)n1C2)COC(=O)[C@]3(O)CC [No. 3, irinotecan hydrochloride]
≥ 100 mg/mL			CCc1c2c(nc3ccc(OC(=O)N4CCC(N5CCCCC5)CC4)cc13)-c1cc3c(c(=O)n1C2)COC(=O)[C@]3(O)CC [c-type crystals, irinotecan hydrochloride]
